28 compounds from patent publication US8765773B2, “Substituted hydroxamic acids and uses thereof” (Millennium Pharmaceuticals, Inc., priority 2010, dated 2014) can be followed below.

The first assay deals with T1, purified human HDAC6 (Homo sapiens, UniProt Q9UBN7).
T1 construct: purchased BPS Bioscience 5006
T1 sequence (Q9UBN7 1-1215): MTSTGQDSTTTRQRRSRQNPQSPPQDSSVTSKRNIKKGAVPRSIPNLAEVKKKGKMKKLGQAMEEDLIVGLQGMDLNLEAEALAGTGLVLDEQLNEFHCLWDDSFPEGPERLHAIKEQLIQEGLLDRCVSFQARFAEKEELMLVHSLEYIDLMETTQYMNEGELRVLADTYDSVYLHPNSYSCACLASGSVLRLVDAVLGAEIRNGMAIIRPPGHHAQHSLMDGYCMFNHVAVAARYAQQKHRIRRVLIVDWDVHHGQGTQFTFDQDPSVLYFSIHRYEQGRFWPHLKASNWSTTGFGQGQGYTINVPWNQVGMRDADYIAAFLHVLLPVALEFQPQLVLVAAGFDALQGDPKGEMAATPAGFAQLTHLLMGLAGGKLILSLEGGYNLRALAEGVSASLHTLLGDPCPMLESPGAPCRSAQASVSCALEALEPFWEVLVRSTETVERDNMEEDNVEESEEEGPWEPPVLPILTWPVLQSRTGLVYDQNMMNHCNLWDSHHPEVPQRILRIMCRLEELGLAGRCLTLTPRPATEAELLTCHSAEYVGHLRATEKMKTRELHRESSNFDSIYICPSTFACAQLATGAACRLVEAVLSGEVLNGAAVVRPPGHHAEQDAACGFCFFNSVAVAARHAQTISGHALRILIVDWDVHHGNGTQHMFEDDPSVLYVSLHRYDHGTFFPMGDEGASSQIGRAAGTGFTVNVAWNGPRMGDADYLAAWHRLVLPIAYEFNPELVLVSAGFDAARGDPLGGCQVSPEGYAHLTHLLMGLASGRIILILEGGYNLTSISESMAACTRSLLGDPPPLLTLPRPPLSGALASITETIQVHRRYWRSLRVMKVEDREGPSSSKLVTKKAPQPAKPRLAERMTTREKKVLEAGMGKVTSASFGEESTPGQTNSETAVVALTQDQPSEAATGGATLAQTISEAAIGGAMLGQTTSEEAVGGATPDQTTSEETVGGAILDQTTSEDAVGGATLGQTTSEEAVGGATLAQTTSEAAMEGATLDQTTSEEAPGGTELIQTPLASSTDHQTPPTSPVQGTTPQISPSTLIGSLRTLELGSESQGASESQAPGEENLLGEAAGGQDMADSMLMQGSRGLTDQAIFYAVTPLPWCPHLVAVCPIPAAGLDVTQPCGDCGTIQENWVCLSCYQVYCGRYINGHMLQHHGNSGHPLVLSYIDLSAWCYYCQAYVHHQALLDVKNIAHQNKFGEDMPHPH
The assay is described as follows: HDAC6 Enzyme Assay. The note with it: compound concentration 0.37 μM, read-out: Percent Inhibition. It counts as biochemical. The protocol:
To measure the inhibition of HDAC6 activity, purified human HDAC6 (BPS Bioscience; Cat. No. 5006) is incubated with substrate Ac-Arg-Gly-Lys(Ac)-AMC peptide (Bachem Biosciences; Cat. No. I-1925) for 1 hour at 30° C. in the presence of test compounds or vehicle DMSO control. The reaction is stopped with the HDAC inhibitor trichostatin A (Sigma; Cat. No. T8552) and the amount of Arg-Gly-Lys-AMC generated is quantitated by digestion with trypsin (Sigma; Cat. No. T1426) and subsequent measurement of the amount of AMC released using a fluorescent plate reader (Pherastar; BMG Technologies) set at Ex 340 nm and Em 460 nm. Concentration response curves are generated by calculating the fluorescence increase in test compound-treated samples relative to DMSO-treated controls, and percentage inhibition values at a single concentration or enzyme inhibition (IC50) values are determined from those curves. One skilled in the art will appreciate that the values generated either as percentage inhibition at a single concentration or IC50 values are subject to experimental variation.
As usually defined, the inhibition is how much of the control response was suppressed. As for `CC(=O)Nc1cccc(-c2cccc(Cn3cnc4ccc(C(=O)NO)cc4c3=O)c2)c1` [Compound I-60, 3-{[3′-(acetylamino)biphenyl-3-yl]methyl}-N-hydroxy-4-oxo-3,4-dihydroquinazoline-6-carboxamide], the inhibition at 0.37 µM is 98.4%.

As to `O=C(NO)c1ccc2ncn(Cc3cccc(-c4ccc(C(F)(F)F)cc4)c3)c(=O)c2c1` [Compound I-69, N-hydroxy-4-oxo-3-{[4′-(trifluoromethyl)biphenyl-3-yl]methyl}-3,4-dihydroquinazoline-6-carboxamide], the inhibition at 0.37 µM was found to be 82%. Still for that read-out and setting: to `O=C(NO)c1ccc2ncn(Cc3cccc(-c4cc(C(F)(F)F)cc(C(F)(F)F)c4)c3)c(=O)c2c1` [Compound I-79, 3-{[3′,5′-bis(trifluoromethyl)biphenyl-3-yl]methyl}-N-hydroxy-4-oxo-3,4-dihydroquinazoline-6-carboxamide] belongs 84.1%; to `CC(=O)Nc1ccc(-c2cccc(Cn3cnc4ccc(C(=O)NO)cc4c3=O)c2)cc1` [Compound I-80, 3-{[4′-(acetylamino)biphenyl-3-yl]methyl}-N-hydroxy-4-oxo-3,4-dihydroquinazoline-6-carboxamide], 86.7%; to `O=C(NO)c1ccc2ccn(Cc3cccc(-n4cccn4)c3)c(=O)c2c1` [Compound I-82, N-hydroxy-1-oxo-2-[3-(1H-pyrazol-1-yl)benzyl]-1,2-dihydroisoquinoline-7-carboxamide], 100%.

Still in this assay, the particulars now being: compound concentration 0.412 μM, read-out: Percent Inhibition.
Consider `CC(C)(C)OC(=O)N1CCC(NCc2nc3cc(C(=O)NO)ccc3c(=O)[nH]2)CC1` [Compound I-56, tert-butyl 4-[({7-[(hydroxyamino)carbonyl]-4-oxo-3,4-dihydroquinazolin-2-yl}methyl)amino]piperidine-1-carboxylate], for which the inhibition at 0.412 µM is 69%. As to `Cc1ccn(CCn2cnc3ccc(C(=O)NO)cc3c2=O)n1` [Compound I-57, N-hydroxy-3-[2-(3-methyl-1H-pyrazol-1-yl)ethyl]-4-oxo-3,4-dihydroquinazoline-6-carboxamide], the inhibition at 0.412 µM came to 77.4%. As for `CC(C)(C)OC(=O)N1CCC(CCn2ccc3ccc(C(=O)NO)cc3c2=O)CC1` [Compound I-58, tert-butyl 4-{2-[7-[(hydroxyamino)carbonyl]-1-oxoisoquinolin-2(1H)-yl]ethyl}piperidine-1-carboxylate], the inhibition at 0.412 µM amounted to 80.4%. For the compound `O=C(NO)c1ccc2c(=O)n(CC3CC3)cnc2c1` [Compound I-59, 3-(cyclopropylmethyl)-N-hydroxy-4-oxo-3,4-dihydroquinazoline-7-carboxamide], the inhibition at 0.412 µM came out at 80.7%.

For the compound `O=C(NO)c1ccc2ccn(Cc3cccc(C(F)(F)F)c3)c(=O)c2c1` [Compound I-61, N-hydroxy-1-oxo-2-[3-(trifluoromethyl)benzyl]-1,2-dihydroisoquinoline-7-carboxamide], the inhibition at 0.412 µM was determined as 95.7%. As for `O=C(NO)c1ccc2ccn(CCCCOc3ccccc3)c(=O)c2c1` [Compound I-62, N-hydroxy-1-oxo-2-(4-phenoxybutyl)-1,2-dihydroisoquinoline-7-carboxamide], the inhibition at 0.412 µM was found to be 98%. Take `O=C(NO)c1ccc2ncn(Cc3ccccc3Cl)c(=O)c2c1` [Compound I-63, 3-(2-chlorobenzyl)-N-hydroxy-4-oxo-3,4-dihydroquinazoline-6-carboxamide]: the inhibition at 0.412 µM was found to be 93.2%. In the case of `O=C(NO)c1ccc2ccn(C3CCC3)c(=O)c2c1` [Compound I-64, 2-cyclobutyl-N-hydroxy-1-oxo-1,2-dihydroisoquinoline-7-carboxamide], the inhibition at 0.412 µM turned out to be 93.1%. In the case of `O=C(NO)c1ccc2ccn(Cc3c(F)c(F)c(F)c(F)c3F)c(=O)c2c1` [Compound I-65, N-hydroxy-1-oxo-2-(pentafluorobenzyl)-1,2-dihydroisoquinoline-7-carboxamide], the inhibition at 0.412 µM was 93%. As to `O=C(NO)c1ccc2c(=O)[nH]c(COc3ccc4c(c3)OCO4)nc2c1` [Compound I-66, 2-[(1,3-benzodioxol-5-yloxy)methyl]-N-hydroxy-4-oxo-3,4-dihydroquinazoline-7-carboxamide], the inhibition at 0.412 µM turned out to be 89.5%. Still for that read-out and setting: to `O=C(NO)c1ccc2ncn(Cc3nc4ccccc4s3)c(=O)c2c1` [Compound I-67, 3-(1,3-benzothiazol-2-ylmethyl)-N-hydroxy-4-oxo-3,4-dihydroquinazoline-6-carboxamide] belongs 49.2%; to `O=C(NO)c1ccc2c(=O)[nH]c(C(=O)NCc3ccc(Cl)cc3)nc2c1` [Compound I-68, N^2-(4-chlorobenzyl)-N^7-hydroxy-4-oxo-3,4-dihydroquinazoline-2,7-dicarboxamide], 61.7%. Take `COc1ccc(Nc2nc3ccc(C(=O)NO)cc3c(=O)n2C)cc1` [Compound I-70, N-hydroxy-2-[(4-methoxyphenyl)amino]-3-methyl-4-oxo-3,4-dihydroquinazoline-6-carboxamide]: the inhibition at 0.412 µM stood at 46.7%. On to `O=C(NO)c1ccc2ccn(CCOc3ccccc3-n3cccc3)c(=O)c2c1` [Compound I-71, N-hydroxy-1-oxo-2-{2-[2-(1H-pyrrol-1-yl)phenoxy]ethyl}-1,2-dihydroisoquinoline-7-carboxamide], for which the inhibition at 0.412 µM amounted to 98.5%.

Regarding `O=C(NO)c1ccc2ccn(CCCOc3cccc(-c4csnn4)c3)c(=O)c2c1` [Compound I-72, N-hydroxy-1-oxo-2-{3-[3-(1,2,3-thiadiazol-4-yl)phenoxy]propyl}-1,2-dihydroisoquinoline-7-carboxamide], the inhibition at 0.412 µM stood at 94.1%. Turning to `O=C(NO)c1ccc2c(=O)n(Cc3ccc(C(F)(F)F)cc3)c(-c3ccccc3)nc2c1` [Compound I-73, N-hydroxy-4-oxo-2-phenyl-3-[4-(trifluoromethyl)benzyl]-3,4-dihydroquinazoline-7-carboxamide], the inhibition at 0.412 µM was 87.7%. With `O=C(NO)c1ccc2c(=O)n(CCCc3ccccc3)cnc2c1` [Compound I-74, N-hydroxy-4-oxo-3-(3-phenylpropyl)-3,4-dihydroquinazoline-7-carboxamide], the inhibition at 0.412 µM is 94.8%. With `O=C(NO)c1ccc2ccn(Cc3ccc(C(F)(F)F)cc3)c(=O)c2c1` [Compound I-75, N-hydroxy-1-oxo-2-[4-(trifluoromethyl)benzyl]-1,2-dihydroisoquinoline-7-carboxamide], the inhibition at 0.412 µM worked out at 94.6%. For the compound `O=C(NO)c1ccc2ccn(Cc3ccc(F)cc3)c(=O)c2c1` [Compound I-76, 2-(4-fluorobenzyl)-N-hydroxy-1-oxo-1,2-dihydroisoquinoline-7-carboxamide], the inhibition at 0.412 µM was determined as 93.8%.

With `O=C(NO)c1ccc2ccn(CCNCc3cccc(C(F)(F)F)c3)c(=O)c2c1` [Compound I-77, N-hydroxy-1-oxo-2-(2-{[3-(trifluoromethyl)benzyl]amino}ethyl)-1,2-dihydroisoquinoline-7-carboxamide], the inhibition at 0.412 µM is 91%.

Consider `O=C(NO)c1ccc2ccn(Cc3ccc(C(F)(F)F)cc3C(F)(F)F)c(=O)c2c1` [Compound I-78, 2-[2,4-bis(trifluoromethyl)benzyl]-N-hydroxy-1-oxo-1,2-dihydroisoquinoline-7-carboxamide], for which the inhibition at 0.412 µM is 92.9%. Regarding `CC(C)Cc1nc2cc(C(=O)NO)ccc2c(=O)n1Cc1ccc(C(F)(F)F)cc1` [Compound I-81, N-hydroxy-2-isobutyl-4-oxo-3-[4-(trifluoromethyl)benzyl]-3,4-dihydroquinazoline-7-carboxamide], the inhibition at 0.412 µM amounted to 76.7%. For `O=C(NO)c1ccc2ccn(Cc3cccc4cccnc34)c(=O)c2c1` [Compound I-83, N-hydroxy-1-oxo-2-(quinolin-8-ylmethyl)-1,2-dihydroisoquinoline-7-carboxamide], the inhibition at 0.412 µM was determined as 89.7%.
